Common to all, as to format: functional, cell-based
A short description of test [1]: Anti-proliferative activity against human NUGC3 cells by XTT assay. As to conditions: NUGC-3.
The nature of test [2]: Anti-proliferative activity against human HCT15 cells by XTT assay. To be noted: HCT-15. (Formazan colour is commonly taken as a measure of viable cells.)
Another test has as its system ACHN. The test is described as follows: Anti-proliferative activity against human ACHN cells by XTT assay.
The nature of test [3]: Anti-proliferative activity against human PC3 cells by XTT assay. As to conditions: PC-3.
The subject of the next test is NCI-H23. The test is described as follows: Anti-proliferative activity against human NCI-H23 cells by XTT assay.
The subject of a further test is MDA-MB-231. Nature of the test: Anti-proliferative activity against human MDA-MB-231 cells by XTT assay.

Each structure is given as a SMILES string. Counter-ions that a name gives are not always drawn.

As for `O=c1c(Cc2coc3ccccc3c2=O)coc2ccccc12`, the half-maximal inhibitory concentration (IC50) in test [1] is 7.77 µM; in test [2], above 10 µM; in the test on ACHN, 0.51 µM; in test [3] it was 7.4 µM; with NCI-H23, 1.4 µM; in the test with MDA-MB-231, above 10 µM.
`O=c1c(Cc2coc3cccc(O)c3c2=O)coc2ccccc12`: the IC50 in test [1] is 3.27 µM; in test [2] it was above 10 µM; in the test on ACHN, 0.74 µM; in test [3] it was 5.95 µM; with NCI-H23 it was 7.55 µM; in the test on MDA-MB-231, above 10 µM.
For the compound `COc1cccc2occ(Cc3coc4ccccc4c3=O)c(=O)c12`, the IC50 in test [1] was 3.19 µM; in test [2], 3.43 µM; in the test with ACHN, 0.34 µM; in test [3] it was 3.49 µM; with NCI-H23, 1.93 µM; in the test on MDA-MB-231 it was above 10 µM.
On to `CC(C)COc1cccc2occ(Cc3coc4ccccc4c3=O)c(=O)c12`, for which the concentration for half-maximal inhibition (IC50) in test [1] is above 10 µM; in test [2], above 10 µM; in the test on ACHN, 1.46 µM; in test [3], 1.72 µM; with NCI-H23, above 10 µM; with MDA-MB-231, above 10 µM.
Consider `CC(C)CCOc1cccc2occ(Cc3coc4ccccc4c3=O)c(=O)c12`, for which the 50% inhibitory concentration (IC50) in test [1] is above 10 µM; in test [2] it was above 10 µM; in the test on ACHN, 3.96 µM; in test [3], above 10 µM; in the test with NCI-H23, above 10 µM; in the test on MDA-MB-231 it was above 10 µM.
With `O=c1c(Cc2coc3cccc(OCc4ccccc4)c3c2=O)coc2ccccc12`, the IC50 was 7.22 µM in test [1]; above 10 µM in test [2]; 3.99 µM in the test with ACHN; 4.83 µM in test [3]; above 10 µM in the test on NCI-H23; above 10 µM in the test with MDA-MB-231.
Consider `O=c1c(/C=C/c2coc3ccccc3c2=O)coc2ccccc12`, for which the IC50 (in test [1]; in test [2]; in the test on ACHN; in test [3]; in the test with NCI-H23; in the test with MDA-MB-231) was above 10 µM each time.
`O=c1c(CCc2coc3ccccc3c2=O)coc2ccccc12`: the 50% inhibitory concentration (IC50) (in test [1]; in test [2]; in the test with ACHN; in test [3]; in the test on NCI-H23; with MDA-MB-231) was above 10 µM throughout.
Take `O=c1c(Cc2coc3cccc(OCC4CCCCC4)c3c2=O)coc2ccccc12`: the IC50 in test [1] amounted to 3.53 µM; in test [2], 4.24 µM; in the test with ACHN, 4.23 µM; in test [3], 4.51 µM; with NCI-H23, 4.13 µM; in the test with MDA-MB-231, 4.11 µM.
For the compound `Cc1ccc2c(=O)c(Cc3coc4cccc(OCC5CCCCC5)c4c3=O)coc2c1`, the half-maximal inhibitory concentration (IC50) in test [1] is 2.15 µM; in test [2], 2.22 µM; with ACHN, 2.25 µM; in test [3], 2.44 µM; with NCI-H23, 3.22 µM; in the test with MDA-MB-231, 3.32 µM.
`COc1ccc2c(=O)c(Cc3coc4cccc(OCC5CCCCC5)c4c3=O)coc2c1`: the half-maximal inhibitory concentration (IC50) in test [1] was determined as 1.44 µM; in test [2] it was 1.45 µM; in the test on ACHN it was 1.35 µM; in test [3], 1.12 µM; with NCI-H23, 1.32 µM; in the test with MDA-MB-231, 1.2 µM.
On to `O=c1c(Cc2coc3cccc(OCC4CCCCC4)c3c2=O)coc2cc(Cl)ccc12`, for which the IC50 (in test [1]; in test [2]; in the test with ACHN; in test [3]; with NCI-H23; in the test on MDA-MB-231) was above 10 µM throughout.
For `O=c1c(Cc2coc3cccc(OCC4CCCCC4)c3c2=O)coc2cc(O)ccc12`, the IC50 in test [1] stood at 3.22 µM; in test [2] it was 2.11 µM; with ACHN, 2.1 µM; in test [3], 4.25 µM; in the test with NCI-H23, 2.15 µM; in the test with MDA-MB-231, 3.22 µM.
As to `O=C1c2c(OCC3CCCCC3)cccc2OCC1Cc1coc2ccccc2c1=O` (stereo not drawn), the IC50 in test [1] came to 8.42 µM; in test [2], 8.36 µM; with ACHN it was 8.2 µM; in test [3], 9.38 µM; in the test on NCI-H23, 9.49 µM; with MDA-MB-231 it was 9.11 µM.
Turning to `COc1cccc2c1C(=O)c1c(O)c3c(c(O)c1C2=O)C[C@@](O)(C(=O)CO)C[C@@H]3O[C@H]1C[C@H](N)[C@H](O)[C@H](C)O1` [DOXORUBICIN HYDROCHLORIDE], the concentration for half-maximal inhibition (IC50) in test [1] was 0.38 µM; in test [2] it was 0.43 µM; in the test with NCI-H23 it was 0.49 µM; in the test with MDA-MB-231 it was 0.6 µM.

As a reminder, the IC50 is the concentration that inhibits the measured activity by half. Lower therefore signals higher potency.

The values are drawn from ChEMBL document CHEMBL3351846, “Synthesis and SAR studies of bis-chromenone derivatives for anti-proliferative activity against human cancer cells” (Bioorg Med Chem Lett, 2014).
